Laboratory results as given in US7902254B1, “Method for treating conditions mediated by PPAR using macelignan” (Newtree Co., Ltd., priority 2005, dated 2011).

Key:
human PPARα = target: T1, human PPARα (Homo sapiens, UniProt Q07869); assay: PPARα activation, PPRE-controlled luciferase reporter in transfected COS-7 cells; type: cell-based; conditions: 24 hours
T1 construct: expressed in transfected cells; host or cells: COS-7 monkey kidney cells (ATCC CRL-1651)
T1 sequence (Q07869 192-468 limits assumed): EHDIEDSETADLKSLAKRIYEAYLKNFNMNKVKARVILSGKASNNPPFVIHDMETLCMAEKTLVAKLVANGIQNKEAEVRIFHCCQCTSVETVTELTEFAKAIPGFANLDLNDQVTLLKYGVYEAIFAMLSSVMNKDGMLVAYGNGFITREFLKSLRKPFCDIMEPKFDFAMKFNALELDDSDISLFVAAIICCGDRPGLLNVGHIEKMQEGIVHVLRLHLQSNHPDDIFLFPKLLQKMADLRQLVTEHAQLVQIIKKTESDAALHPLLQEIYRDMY
Description: To investigate whether macelignan acts as a ligand of PPAR or not, it was tested according to known method (Cell, 68: 879-887, 1992; J. Biol. Chem., 272: 25252-25259, 1997) using a plasmid expressing PPAR and a vector having PPRE-controlled luciferase genes.
Activation of luciferase expression was measured by transfecting COS-7 monkey kidney cells (ATCC CRL-1651) with the PPARα plasmid and pFR-luciferase vector (Stratagene, USA), and then by treating the transfected cells with macelignan isolated from Example 1 for 24 hours. The PPARα plasmid was obtained by isolating polynucleotide encoding the amino acid sequence of amino acids […] (i.e. PPARα ligand-bound domain of the total amino acid sequence of human PPARα (Genbank Acession No. S74349)) with the primers of SEQ ID NO: 1 ([…]) and SEQ ID NO: 2 (TGGGGTACCTGGCTGAT) by RT-PCR. Then, the polynucleotide was cloned between the restriction enzyme sites of BamHI and KpnI of pFA vector (Stratagene, USA). Herein, mRNA used as the template in RT-PCR was obtained by separating the total RNA in cultured Hep G2 (ATCC HB-8065) human liver cells by using TRIZOL (Invitrogen, USA). RT-PCR was performed by synthesizing cDNA using reverse transcriptase at 42° C. for 60 minutes, and 30 cycles of 1 minute at 95° C., 30 seconds at 54° C. and 2 minutes at 72° C. using Taq polymerase. At this time, the test groups treated with different concentrations (1, 5, 10 and 25 μM) of macelignan according to the present invention were compared to the control treated with 0.01% DMSO, and to the groups treated with different concentrations (1, 5, 10 and 25 μM) of Wy-14643 (Sigma, USA), a compound known as a PPARα ligand.

[1] = tested on: target genes of PPARα (CD36, CPT-1, PDK4, ACO); assay: Expression of target genes of PPARα in SK-HEP-1 liver cells (RT-PCR); type: cell-based; conditions: SK-HEP-1 cells, 1, 5, 10 and 25 μM, 24 hours, vs control
Description: SK-HEP-1 liver cells ([…]) cultured in a DMEM medium containing 10% FBS were pipetted into a multi-well plate in a cell count of 1×10^6 cells per well, and then further cultured for 5 hours. Different concentrations (1, 5, 10 and 25 μM) of macelignan were added to the medium of the cultured cells, and then the cells were left for 24 hours. The cells were collected and the total RNA was isolated by using TRIZOL (Invitrogen, USA). The total RNA isolated as described above was determined and cDNA was synthesized by using reverse transcriptase at 42° C. for 20 minutes with same amounts of RNA. The cDNA was subjected to RT-PCR by repeating 30 cycles of 95° C./1 minute, 56° C./30 seconds and 72° C./2 minutes with the following primers and Taq polymerase: primers for CD36 amplification (SEQ ID NO: 5(CGGCGATGAGAAAGCAGAA) and SEQ ID NO: 6(CAACCAGGCCCAGGAGC)), primers for CPT-1 amplification (SEQ ID NO: 7([…]) and SEQ ID NO: 8([…])), primers for PDK4 amplification (SEQ ID NO: 9([…]) and SEQ ID NO: 10(ATAAGTTAAGTGGGCCTGG)), and primers for ACO amplification (SEQ ID NO: 11([…]) and SEQ ID NO: 12([…])).

[2] = tested on: obesity/diabetes mice (db/db mice); assay: Anti-obesity effect in obesity/diabetes mouse model; type: in vivo; conditions: for body weight / intramuscular triglyceride accumulation / white adipose tissue weight: 14th day, db/db mice
Description: To investigate the anti-obesity effect of macelignan, seven mice of 10 week-aged obesity/diabetes mice (db/db mice) were used per test group. To the test groups, macelignan suspended in […] carboxymethyl cellulose was orally administered in an administration dose of 5 mg/kg (body weight), 10 mg/kg (body weight) and 25 mg/kg (body weight), once per day at a predetermined time, for 14 days. As a control, 0.25% carboxymethyl cellulose was orally administered alone to normal mice in the same dose as administered to the test group. As another control, 0.25% carboxymethyl cellulose was orally administered alone to obesity/diabetes mice in the same dose as administered to the test group. As still another control, 10 mg/kg (body weight) of troglitazone was orally administered. From 6 days before the administration, diet intake and body weight of each obesity/diabetes mouse were measured once per three days. Additionally, on the 14th day after the oral administration, white adipose tissue weight and the amount of triglyceride accumulated in muscle cell were measured (Triglyceride measuring kit, Wako, No. 432-40201, Japan).

[3] = tested on: target genes of PPARγ (CD36, LPL, ACS, GyK); assay: Expression of target genes of PPARγ in liver tissue of obesity/diabetes mouse model; type: in vivo; conditions: 5, 10 and 25 mg/kg oral, 14 days, db/db mice, p<0.05 vs control
Description: Liver tissue was removed from the test groups and the controls treated by oral administration in Examples 5˜8. The liver tissue was homogenized in liquid nitrogen and the total RNA was isolated from the crushed tissues by using TRIZOL (Invitrogen, USA). The total RNA isolated as described above was determined and cDNA was synthesized by using reverse transcriptase at 42° C. for 20 minutes. The cDNA was subjected to RT-PCR by repeating the cycle of 95° C./1 minute, 56° C./30 seconds and 72° C./2 minutes thirty times with the following primers and Taq polymerase: primers for CD36 amplification (SEQ ID NO: 5 and SEQ ID NO: 6), primers for LPL amplification (SEQ ID NO: 13 and SEQ ID NO: 14), primers for ACS amplification (SEQ ID NO: 17 (AGCAGAGCTTCGCACGGC) and SEQ ID NO: 18 ([…]) and primers for GyK amplification (SEQ ID NO: 19 ([…]) and SEQ ID NO: 20 ([…])). Expression of the genes was determined by real-time PCR.

With `COc1cc(C[C@H](C)[C@H](C)Cc2ccc3c(c2)OCO3)ccc1O` (single isomer, unassigned) [macelignan] the “luciferase activity higher than the control (PPARα)” value (human PPARα; 25 μM, control 0.01% DMSO) was “about 14 times”, the PPARα activity (human PPARα; 1, 5, 10 and 25 μM, p<0.01 vs control) was “increased PPARα activity in a concentration-dependent manner” and the “mRNA expression of CD36, CPT-1, PDK-4 and ACO” value [1] was “significantly increased”. It also gave a body weight ([2]; 5 mg/kg oral) of 46.32 ± 2.31 g, an intramuscular triglyceride accumulation ([2]; 5 mg/kg oral) of 24.7 ± 4.74 mg and a white adipose tissue weight ([2]; 5 mg/kg oral) of 4230 ± 284 mg. For the same compound, the body weight ([2]; 10 mg/kg oral) was 43.8 ± 2.94 g, the intramuscular triglyceride accumulation ([2]; 10 mg/kg oral) was 22.8 ± 5.76 mg and the white adipose tissue weight ([2]; 10 mg/kg oral) was 3900 ± 279 mg. It also gave a body weight ([2]; 25 mg/kg oral) of 41.80 ± 1.56 g, an intramuscular triglyceride accumulation ([2]; 25 mg/kg oral) of 20.2 ± 3.82 mg and a white adipose tissue weight ([2]; 25 mg/kg oral) of 2690 ± 154 mg. The diet intake ([2]; 5, 10 and 25 mg/kg oral, 14 days, test groups vs controls) was “no significant difference” and the “mRNA expression of CD36, LPL, ACS and GyK in liver tissue” value [3] was “significantly increased”.
